Read-outs that look alike come from different tables or passages of the source.
Experiments:
MTAP-deleted cell line = assay: viability assay for the MTAP-deleted cell line; assay type: cell-based
[1] = tested on: HAP1 MTAP-deleted cell line; assay: SDMA in-cell western assay, HAP1 MTAP-deleted; conditions: for Hap1 MTAP intact/deleted ratio: IC50 ratio between HAP1 MTAP-intact and HAP1 MTAP-deleted cell line
[2] = tested on: HAP1 MTAP-intact cell line; assay: SDMA in-cell western assay, HAP1 MTAP-intact
[3] = Homo sapiens, HAP1, viability assay
[4] = Homo sapiens, HAP1, read-out: Hap1 MTAP deleted IC50, SDMA in-cell western assay, HAP1 MTAP-deleted cell line
[5] = Homo sapiens, HAP1, read-out: Hap1 MTAP deleted IC90, SDMA in-cell western assay, HAP1 MTAP-deleted cell line
[6] = Homo sapiens, HAP1, read-out: Hap1 MTAP intact IC50, SDMA in-cell western assay, HAP1 MTAP-intact cell line
[7] = Homo sapiens, HAP1, read-out: Hap1 MTAP deleted IC50, SDMA in-cell western, HAP1 MTAP-deleted cell line
[8] = Homo sapiens, HAP1, read-out: Hap1 MTAP deleted IC90, SDMA in-cell western, HAP1 MTAP-deleted cell line
[9] = Homo sapiens, HAP1, read-out: Hap1 MTAP intact IC50, SDMA in-cell western, HAP1 MTAP-intact cell line

| IC50 [1, 4] [nM] | IC90 [1, 5] [nM] | IC50 [2, 6] [nM] | IC50 [1, 7] [nM] | IC90 [1, 8] [nM] | IC50 [2, 9] [nM] | SMILES | IC50 (MTAP-deleted cell line; [3]) [nM] | Hap1 MTAP intact/deleted ratio ([1]; SDMA in-cell western assay) | Hap1 MTAP intact/deleted ratio ([1]; SDMA in-cell western) | IC50 (MTAP-deleted cell line; viability assay, read-out: Hap1 MTAP deleted viability IC50) [nM] | IC50 ([1]; read-out: Hap1 MTAP deleted IC50, SDMA in-cell western assay, HAP1 MTAP-deleted cell line) [nM] | IC90 ([1]; read-out: Hap1 MTAP deleted IC90, SDMA in-cell western assay, HAP1 MTAP-deleted cell line) [nM] | IC50 ([2]; read-out: Hap1 MTAP intact IC50, SDMA in-cell western assay, HAP1 MTAP-intact cell line) [nM] |
| --- | --- | --- | --- | --- | --- | --- | --- | --- | --- | --- | --- | --- | --- |
| < 5 | < 75 | 5 to 50 | – | – | – | CC[C@@H]1CC[C@H](CC)N(C(=O)C(=O)Nc2cnc(N)c3cn[nH]c23)C1 (racemic) [Compound 227] | < 100 | B (“B” indicates an IC50 ratio greater than or equal to 15 fold but lower than 30 fold) | – | – | – | – | – |
| – | – | – | < 5 | < 75 | > 50 | C[C@@H]1CC[C@@H](c2cc(Cl)cc(Cl)c2)N(C(=O)C(=O)Nc2cnc(N)c3cn[nH]c23)C1 (racemic) [Compound 161, N-(4-amino-1H-pyrazolo[4,3-c]pyridin-7-yl)-2-(rac-(2S,5R)-2-(3,5-dichlorophenyl)-5-methylpiperidin-1-yl)-2-oxoacetamide] | < 100 | – | A (“A” indicates an IC50 ratio greater than or equal to 30 fold) | – | – | – | – |
| – | – | – | 5 to 50 | > 125 | > 50 | C[C@H]1CC[C@H]([C@H]2CCCOC2)N(C(=O)C(=O)Nc2cnc(N)c3cn[nH]c23)C1 (mixture of isomers) [Compound 140, N-(4-amino-1H-pyrazolo[4,3-c]pyridin-7-yl)-2-((2R,5S)-5-methyl-2-(rac-(R)-tetrahydro-2H-pyran-3-yl)piperidin-1-yl)-2-oxoacetamide] | 100 to 1000 | – | A (“A” indicates an IC50 ratio greater than or equal to 30 fold) | – | – | – | – |
| – | – | – | < 5 | < 75 | 5 to 50 | C[C@H]1CC[C@H](c2ccc3sc(C4CC5(C4)CN(C)C5)nc3c2)N(C(=O)C(=O)Nc2cncc3cn[nH]c23)C1 [Compound 93, 2-((2R,5S)-5-methyl-2-(2-(2-methyl-2-azaspiro[3.3]heptan-6-yl)benzo[d]thiazol-5-yl)piperidin-1-yl)-2-oxo-N-(1H-pyrazolo[4,3-c]pyridin-7-yl)acetamide] | < 100 | – | C (“C” indicates an IC50 ratio of less than 15 fold) | – | – | – | – |
| < 5 | < 75 | 5 to 50 | – | – | – | Cc1ccc2ccc([C@H]3CC[C@H](C)CN3C(=O)C(=O)Nc3cnc(N)c4cn[nH]c34)cc2n1 (racemic) [Compound 215, N-(4-Amino-1H-pyrazolo[4,3-c]pyridin-7-yl)-2-oxo-2-[rac-(2R,5S)-5-methyl-2-(2-methyl-7-quinolyl)-1-piperidyl]acetamide] | < 100 | C (“C” indicates an IC50 ratio of less than 15 fold) | – | – | – | – | – |
| < 5 | < 75 | 5 to 50 | – | – | – | C[C@@H]1CN(C(=O)C(=O)Nc2cnc(N)c3cn[nH]c23)[C@@H](c2ccccc2)CC1(F)F (racemic) [Compound 216, N-(4-Amino-1H-pyrazolo[4,3-c]pyridin-7-yl)-2-oxo-2-[rac-(2R,5R)-4,4-difluoro-5-methyl-2-phenyl-1-piperidyl]acetamide] | < 100 | C (“C” indicates an IC50 ratio of less than 15 fold) | – | – | – | – | – |
| < 5 | < 75 | > 50 | – | – | – | CC[C@@H]1CC[C@@H](CC)N(C(=O)C(=O)Nc2cnc(N)c3cn[nH]c23)C1 (racemic) [Compound 233] | < 100 | B (“B” indicates an IC50 ratio greater than or equal to 15 fold but lower than 30 fold) | – | – | – | – | – |
| – | – | – | < 5 | < 75 | 5 to 50 | C[C@H]1CC[C@H](c2ccc3sc(C4CCOCC4)nc3c2)N(C(=O)C(=O)Nc2cnc(N)c3cn[nH]c23)C1 [Compound 143, N-(4-amino-1H-pyrazolo[4,3-c]pyridin-7-yl)-2-((2R,5S)-5-methyl-2-(2-(tetrahydro-2H-pyran-4-yl)benzo[d]thiazol-5-yl)piperidin-1-yl)-2-oxoacetamide] | < 100 | – | C (“C” indicates an IC50 ratio of less than 15 fold) | – | – | – | – |

Second part, the compound before the results:

| SMILES | IC50 [1, 4] [nM] | IC90 [1, 5] [nM] | IC50 [2, 6] [nM] | IC50 [1, 7] [nM] | IC90 [1, 8] [nM] | IC50 [2, 9] [nM] | IC50 (MTAP-deleted cell line; [3]) [nM] | Hap1 MTAP intact/deleted ratio ([1]; SDMA in-cell western assay) | Hap1 MTAP intact/deleted ratio ([1]; SDMA in-cell western) | IC50 (MTAP-deleted cell line; viability assay, read-out: Hap1 MTAP deleted viability IC50) [nM] | IC50 ([1]; read-out: Hap1 MTAP deleted IC50, SDMA in-cell western assay, HAP1 MTAP-deleted cell line) [nM] | IC90 ([1]; read-out: Hap1 MTAP deleted IC90, SDMA in-cell western assay, HAP1 MTAP-deleted cell line) [nM] | IC50 ([2]; read-out: Hap1 MTAP intact IC50, SDMA in-cell western assay, HAP1 MTAP-intact cell line) [nM] |
| --- | --- | --- | --- | --- | --- | --- | --- | --- | --- | --- | --- | --- | --- |
| C[C@H]1CC[C@H](c2ccc3sc([C@@H]4CCN(C)C[C@H]4C)nc3c2)N(C(=O)C(=O)Nc2cncc3cn[nH]c23)C1 (relative stereo) [Compound 71, 2-oxo-N-(1H-pyrazolo[4,3-c]pyridin-7-yl)-2-[(2R,5S)-5-methyl-2-[2-[rel-(3S,4R)-1,3-dimethyl-4-piperidyl]-1,3-benzothiazol-5-yl]-1-piperidyl]acetamide] | – | – | – | < 5 | < 75 | 5 to 50 | < 100 | – | C (“C” indicates an IC50 ratio of less than 15 fold) | – | – | – | – |
| C[C@H]1CC[C@H](c2ccc3ncccc3c2)N(C(=O)C(=O)Nc2cnc(N)c3cn[nH]c23)C1 [Compound 83, N-(4-amino-1H-pyrazolo[4,3-c]pyridin-7-yl)-2-((2R,5S)-5-methyl-2-(quinolin-6-yl)piperidin-1-yl)-2-oxoacetamide] | – | – | – | < 5 | < 75 | 5 to 50 | < 100 | – | B (“B” indicates an IC50 ratio greater than or equal to 15 fold but lower than 30 fold) | – | – | – | – |
| C[C@H]1CC[C@H](c2ccc3sc([C@@H](C)CN4CCCC4)nc3c2)N(C(=O)C(=O)Nc2cncc3cn[nH]c23)C1 [Compound 86, 2-oxo-N-(1H-pyrazolo[4,3-c]pyridin-7-yl)-2-[(2R,5S)-5-methyl-2-[2-[(1S)-1-methyl-2-pyrrolidin-1-yl-ethyl]-1,3-benzothiazol-5-yl]-1-piperidyl]acetamide] | – | – | – | < 5 | < 75 | > 50 | < 100 | – | B (“B” indicates an IC50 ratio greater than or equal to 15 fold but lower than 30 fold) | – | – | – | – |
| C[C@H]1CC[C@H](c2ccc3sc(CCN(C)C)nc3c2)N(C(=O)C(=O)Nc2cncc3[nH]ncc23)C1 (single isomer, unassigned) [Compound 92, 2-(2-(2-(2-(dimethylamino)ethyl)benzo[d]thiazol-5-yl)-5-methylpiperidin-1-yl)-2-oxo-N-(1H-pyrazolo[3,4-c]pyridin-4-yl)acetamide] | – | – | – | < 5 | > 125 | > 50 | < 100 | – | B (“B” indicates an IC50 ratio greater than or equal to 15 fold but lower than 30 fold) | – | – | – | – |
| C[C@H]1CC[C@H](c2ccc3sc([C@@H]4CCN(C)C[C@@H]4C)nc3c2)N(C(=O)C(=O)Nc2cncc3cn[nH]c23)C1 (relative stereo) [Compound 12, 2-oxo-N-(1H-pyrazolo[4,3-c]pyridin-7-yl)-2-[(2R,5S)-5-methyl-2-[2-[rel-(3R,4R)-1,3-dimethyl-4-piperidyl]-1,3-benzothiazol-5-yl]-1-piperidyl]acetamide] | – | – | – | < 5 | < 75 | > 50 | < 100 | – | B (“B” indicates an IC50 ratio greater than or equal to 15 fold but lower than 30 fold) | – | – | – | – |
| C[C@H]1CC[C@H](c2ccc3ccc(C4CCN(C)CC4)nc3c2)N(C(=O)C(=O)Nc2cncc3cn[nH]c23)C1 [Compound 42, 2-((2R,5S)-5-methyl-2-(2-(1-methylpiperidin-4-yl)quinolin-7-yl)piperidin-1-yl)-2-oxo-N-(1H-pyrazolo[4,3-c]pyridin-7-yl)acetamide] | – | – | – | < 5 | < 75 | > 50 | < 100 | – | A (“A” indicates an IC50 ratio greater than or equal to 30 fold) | – | – | – | – |
| C[C@H]1CC[C@H](c2ccc3sc(C4CCN(C)CC4)nc3c2)N(C(=O)C(=O)Nc2cnc(N)c3cnccc23)C1 [Compound 11, N-(1-amino-2,7-naphthyridin-4-yl)-2-((2R,5S)-5-methyl-2-(2-(1-methylpiperidin-4-yl)benzo[d]thiazol-5-yl)piperidin-1-yl)-2-oxoacetamide] | – | – | – | < 5 | < 75 | 5 to 50 | < 100 | – | C (“C” indicates an IC50 ratio of less than 15 fold) | – | – | – | – |
| C[C@H]1CC[C@H](c2ccc3sc(CCN(C)C)nc3c2)N(C(=O)C(=O)Nc2ccn3ccnc3c2)C1 (single isomer, unassigned) [Compound 16, 2-(2-(2-(2-(dimethylamino)ethyl)benzo[d]thiazol-5-yl)-5-methylpiperidin-1-yl)-N-(imidazo[1,2-a]pyridin-7-yl)-2-oxoacetamide] | – | – | – | < 5 | < 75 | > 50 | < 100 | – | A (“A” indicates an IC50 ratio greater than or equal to 30 fold) | – | – | – | – |
| C[C@H]1CC[C@H](c2ccc3nn(C4CCN(C)CC4)cc3c2)N(C(=O)C(=O)Nc2cncc3c(N)nccc23)C1 [Compound 51, N-(8-amino-2,7-naphthyridin-4-yl)-2-oxo-2-[(2R,5S)-5-methyl-2-[2-(1-methyl-4-piperidyl)indazol-5-yl]-1-piperidyl]acetamide] | – | – | – | 5 to 50 | > 125 | > 50 | 100 to 1000 | – | A (“A” indicates an IC50 ratio greater than or equal to 30 fold) | – | – | – | – |
| CC1OCc2c(NC(=O)C(=O)N3C[C@@H](C)CC[C@@H]3c3ccc4scnc4c3)cnc(N)c21 (single isomer, unassigned) [Compound 288] | – | – | – | – | – | – | – | B (“B” indicates an IC50 ratio greater than or equal to 15 fold but lower than 30 fold) | – | > 1000 | > 50 | > 125 | > 50 |

— patent US20250163048A1 (Tango Therapeutics, Inc., priority 2022, published 2025)
